In patent US20050031661A1, “Attractants for moths” (priority 2003, published 2005):

Columns and labels:
[1] = system: alfalfa looper moth; conditions: Landolt et al., 2001; cited from earlier work
[2] = system: corn earworm moths; experiment: Single component floral lures, 2000 field season (Example 3); assay type: in vivo, Helicoverpa zea; conditions: Universal Moth Traps baited with individual floral chemicals from polypropylene vials
Text: (§1) Materials and Methods. The Universal Moth Trap (Great Lakes IPM, Vestaburg, Mich.) was used in all tests, with a 6 cm^2 piece of Vaportape® (Hercon Environmental Inc., Emigsville, Pa.) in each trap bucket to kill captured moths. The trap is an opaque white bucket with a yellow cone and green lid. Traps were hung from stakes in the weedy borders around irrigated fields in the vicinity of sweet corn and alfalfa, near Mattawa, Grant County, Wash. Traps were placed 12 meters apart in a north to south orientation, because of prevailing westerly winds.
(§2) A randomized complete block design was used, and treatments (trap lures) were randomized each time that traps were checked. Traps were checked twice per week, and insects were placed in pre-labeled plastic bags for transport to the laboratory where they were stored in a freezer until processed. Moths were sorted by sex and identified to species with the aid of a dissecting microscope.
(§3) Unless reported otherwise, polypropylene vials (8 ml) were used as dispensers for release of chemicals tested following the methods of Landolt et al., 2001, supra. Chemicals (5 ml) were pipetted onto cotton in the bottom of the vial. Holes made in the lids (3 mm diameter) permitted the escape of volatilized chemicals from the vials. Vials were suspended with wire near the bottom of the inside of the bucket of the trap. When more than one chemical was used to bait a trap, a separate vial was used for each chemical. Dispensers were replaced every 2 weeks when experiments lasted longer than two weeks.
During the 2000 field season, seven floral compounds were evaluated for attractiveness to corn earworm moths, testing them as lures in traps. These compounds were phenylacetaldehyde, benzyl alcohol, benzyl aldehyde, benzyl acetate, cis jasmone, linalool and phenethyl alcohol. A randomized complete block design was used, with 5 replicate blocks set up. Each block included an unbaited trap as a control.
(§4) Trap catch data were subjected to an ANOVA and treatment means were separated using Tukey's test, following a significant F value in the ANOVA.

[3] = system: corn earworm moths; experiment: Double component Test 7, linalool, benzyl aldehyde, phenethyl alcohol combinations; assay type: in vivo, Helicoverpa zea; conditions: single and double component combinations dispensed from vials
Text: as §1, §2, §3
Seven double component tests were conducted. For each two-component combinations, two vials were placed in the bucket of the trap; one vial containing phenylacetaldehyde and the other vial containing the second chemical (excepting the use of septa as dispensers for the third double component test that involved terpenes. Five replicate blocks, each including one of each of the different two-chemical combinations as well as phenylacetaldehyde alone, were set up and were maintained for two weeks.
Test 7. The combinations of linalool plus benzyl aldehyde, phenethyl alcohol plus benzaldehyde, and phenethyl alcohol plus linalool were compared to phenylacetaldehyde alone, linalool alone, benzyl aldehyde alone and phenethyl alcohol alone.
as §4

[4] = system: alfalfa looper moths; experiment: Double component blends, benzyl acetate plus, trap captures; assay type: in vivo, Autographa californica; conditions: Universal moth traps; benzyl acetate (BA) alone, PAA alone, or BA plus second chemical in separate vials
Text: (§5) Materials and Methods. A multi-colored version of the Universal Moth Trap, or UniTrap® (AgriSense, sold by Great Lakes IPM, Vestaburg, Mich.), was used in all experiments. The trap is an opaque white bucket beneath a yellow cone and a green lid. A 2.5×2.5 cm piece of Vaportape® (Hercon Environmental, Emigsville, Pa.) was placed in each trap bucket as a killing agent. Traps were hung from stakes at a height of about one meter in uncultivated areas adjacent to fields of alfalfa or directly within alfalfa fields. Traps were placed 12 meters apart in a north to south orientation, because of prevailing westerly winds.
(§6) For all experiments, a randomized complete block design was used, and treatments were randomized each time traps were checked. Traps were checked twice per week, at which time all insects in the traps were placed in pre-labeled plastic bags for transport to the laboratory. Moths were identified and sorted by sex under a dissecting microscope.
Polypropylene vials (8 ml) were used as dispensers for release of chemicals tested, following the methods used in Landolt et al., 2001, supra. Chemicals (5 ml) were pipetted onto cotton in the bottom of the vial. Holes made in vial lids (3 mm diameter) permitted the escape of volatilized chemicals. Vials were suspended with wire near the bottom of the inside of the bucket of the UniTrap®. […]

[5] = system: corn earworm moths; experiment: Double component Test 6, combinations with benzyl alcohol; assay type: in vivo, Helicoverpa zea; conditions: single and double component combinations dispensed from vials
Text: as §1, §2
Unless reported otherwise, polypropylene vials (8 ml) were used as dispensers for release of chemicals tested following the methods of Landolt et al., 2001, supra. Chemicals (5 ml) were pipetted onto cotton in the bottom of the vial. Holes made in the lids (3 mm diameter) permitted the escape of volatilized chemicals from the vials. Vials were suspended with wire near the bottom of the inside of the bucket of the trap. […]

[6] = system: corn earworm moths; experiment: Single component floral lures, 2001 field season (Example 3); assay type: in vivo, Helicoverpa zea; conditions: Universal Moth Traps baited with individual floral chemicals from polypropylene vials
Text: as §1, §2
β-Pinene, R-(+)-alpha-pinene, (S)-(−)-limonene, β-myrcene, phenylacetaldehyde, methyl salicylate, and methyl-2-methoxybenzoate were purchased from Aldrich Chemical Inc. (Milwaukee, Wis.). (R)-(+)-limonene was purchased from Acros Chemical Co. (Milwaukee, Wis.).
as §3
A second comparison of floral compounds was made in the 2001 field season, for attractiveness to corn earworm moths. These chemicals were phenylacetaldehyde, methyl salicylate, racemic limonene, methyl-2-methoxybenzoate, […], (S)-beta pinene, and β-myrcene. Five replicate blocks, each including these seven chemical treatments and an unbaited trap as a control, were set up on 3 Jul. 2001 and were maintained until 27 Jul. 2001.
as §4

[7] = system: cabbage looper moths; experiment: Single component floral lures, Universal moth trap captures (Example 2); assay type: in vivo, Trichoplusia ni; conditions: Universal moth traps baited with individual floral chemicals dispensed from polypropylene vials (5 ml, 3 mm hole)
Text: as §5, §6
(§7) β-Pinene, (R)-(+)-α-pinene, (S)-(−)-limonene, β-myrcene, phenylacetaldehyde, methyl salicylate, and methyl-2-methoxybenzoate were purchased from Aldrich Chemical Co. (Milwaukee, Wis.). (R)-(+)-limonene was purchased from Acros Chemical Co. (Milwaukee, Wis.).
(§8) Polypropylene vials (8 ml) were used as dispensers for release of chemicals tested, following the methods used in Landolt et al., 2001, supra. Chemicals (5 ml) were pipetted onto cotton in the bottom of the vial. Holes made in vial lids (3 mm diameter) permitted the escape of volatilized chemicals. Vials were suspended with wire near the bottom of the inside of the bucket of the UniTrap®. When more than one chemical was used to bait a trap, a separate vial was used for each chemical. Dispensers were replaced after two weeks when experiments lasted longer than two weeks.
(§9) A comparison was made of moth captures in traps baited with seven different chemicals that are emitted by flowers. These chemicals were phenylacetaldehyde, (included as a positive control and standard for comparison), methyl salicylate, racemic limonene, methyl-2-methoxybenzoate, (R)-(+)-α-pinene, (S)-(−)-β-pinene, and β-myrcene. Five replicate blocks, each including these seven chemical treatments and an unbaited trap, were set up on 18 May 2001 and were maintained until 1 Jun. 2001. The study was conducted at an experimental farm about 20 km east of the town of Moxee, in Yakima County, Wash. The same study was conducted again 3-27 July 2001 near Mattawa, Grant County, Wash., in order to take advantage of cabbage looper populations that became apparent in mid summer.
as §4

[8] = system: alfalfa looper moths; experiment: as above; assay type: in vivo, Autographa californica; conditions: Universal moth traps baited with individual floral chemicals dispensed from polypropylene vials (5 ml, 3 mm hole)
Text: as §5, §6, §7, §8, §9, §4

[9] = system: corn earworm moths; conditions: Cantelo and Jacobson, 1979b; cited from earlier work

Structure (SMILES) | Attraction of alfalfa looper moths (capture in baited traps) [1] | Mean (±SE) numbers of corn earworm moths captured [2] | Mean (±SE) numbers of corn earworm moths captured [3] | Mean (±SE) numbers of alfalfa looper moths captured [4] | Mean (±SE) numbers of corn earworm moths captured [5] | Mean (±SE) numbers of corn earworm moths captured [6] | Mean (±SE) numbers of cabbage looper moths captured [7] | Mean (±SE) numbers of alfalfa looper moths captured [8] | Attraction of corn earworm moths [9]
O=Cc1ccccc1 [Benzyl aldehyde, benzyl aldehyde] | not attracted | 0.05 ± 0.05a | 0.05 ± 0.05a |  |  |  |  |  | 
OCCc1ccccc1 [Phenethyl alcohol, phenethyl alcohol] | not attracted | 0.00 ± 0.00 | 0.05 ± 0.05a |  |  |  |  |  | 
CC(=O)OCc1ccccc1 [benzyl acetate] | attracted | 0.00 ± 0.00 |  | 0.37 ± 0.12c |  |  |  |  | 
OCc1ccccc1 [benzyl alcohol] | not attracted | 0.15 ± 0.08a |  |  | 0.10 ± 0.07a |  |  |  | 
CC/C=C\CC1=C(C)CCC1=O [cis-jasmone] | not attracted | 0.00 ± 0.00 |  |  |  |  |  |  | 
C=C(C)[C@H]1CC=C(C)CC1 [limonene] |  |  |  |  |  | 0.05 ± 0.05a | 0.0 ± 0.0a | 0.0 ± 0.0a | 
C=CC(C)(O)CCC=C(C)C (centres unmarked) [linalool] | not attracted | 0.00 ± 0.00 | 0.00 ± 0.00a |  |  |  |  |  | 
COC(=O)c1ccccc1O [methyl salicylate] |  |  |  |  |  | 0.10 ± 0.05a | 0.1 ± 0.1a | 0.1 ± 0.0a | 
COC(=O)c1ccccc1OC [methyl-2-methoxybenzoate] |  |  |  |  |  | 3.90 ± 1.69b | 0.6 ± 0.2b | 0.1 ± 0.0a | 
O=CCc1ccccc1 [phenylacetaldehyde] | attracted | 0.45 ± 0.22b | 1.75 ± 0.43c | 0.83 ± 0.21e | 2.25 ± 0.35c | 2.35 ± 0.62b | 7.2 ± 1.0c | 4.5 ± 0.5c | attract
CC1=CC[C@@H]2C[C@H]1C2(C)C [α-pinene, (R)-(+)-α-pinene] |  |  |  |  |  | 0.08 ± 0.04a | 0.1 ± 0.0a | 0.0 ± 0.0a | 
C=CC(=C)CCC=C(C)C [β-myrcene] |  |  |  |  |  | 0.20 ± 0.10a | 0.1 ± 0.1a | 0.4 ± 0.1b | 
C=C1CC[C@H]2C[C@@H]1C2(C)C [β-pinene, (S)-(−)-β-pinene] |  |  |  |  |  | 0.03 ± 0.03a | 0.0 ± 0.0a | 0.0 ± 0.0a | 
